Test results published in the NIST ThermoML archive (doi:10.1021/je060271a).

Conditions: 283.15 K, Liquid, Vibrating tube method

CCCCCC(=O)OCC(COC(=O)CCCCC)(COC(=O)CCCCC)COC(=O)CCCCC [pentaerythritol tetrahexanoate]
Conditions | mass density [kg/m3]
25591 kPa | 1018.3
25610 kPa | 1018.3
25634 kPa | 1018.4
25653 kPa | 1018.5
25672 kPa | 1018.4
25696 kPa | 1018.4
25716 kPa | 1018.4
25738 kPa | 1018.5
25757 kPa | 1018.5
25774 kPa | 1018.5
25793 kPa | 1018.4
25815 kPa | 1018.4
25832 kPa | 1018.4
25851 kPa | 1018.4
25872 kPa | 1018.5
25890 kPa | 1018.4
25912 kPa | 1018.6
25930 kPa | 1018.7
25948 kPa | 1018.5
25966 kPa | 1018.5
25986 kPa | 1018.5
26002 kPa | 1018.5
26022 kPa | 1018.6
26039 kPa | 1018.6
26056 kPa | 1018.6
26075 kPa | 1018.7
26091 kPa | 1018.6
26108 kPa | 1018.7
26127 kPa | 1018.6
26143 kPa | 1018.8
26160 kPa | 1018.6
26180 kPa | 1018.7
26196 kPa | 1018.6
26213 kPa | 1018.6
26233 kPa | 1018.7
26249 kPa | 1018.7
26266 kPa | 1018.8
26287 kPa | 1018.8
26303 kPa | 1018.7
26320 kPa | 1018.8
26337 kPa | 1018.8
26357 kPa | 1018.7
26374 kPa | 1018.7
26394 kPa | 1018.6
26410 kPa | 1018.8
26428 kPa | 1018.7
26448 kPa | 1018.9
26465 kPa | 1018.8
26483 kPa | 1018.7
26500 kPa | 1018.8
26521 kPa | 1018.9
26538 kPa | 1018.8
26559 kPa | 1018.9
26576 kPa | 1018.9
26593 kPa | 1018.8
26609 kPa | 1018.8
26629 kPa | 1018.9
26645 kPa | 1018.9
26661 kPa | 1019
26680 kPa | 1018.9
26696 kPa | 1018.9
26713 kPa | 1018.9
26730 kPa | 1018.9
26746 kPa | 1018.9
26766 kPa | 1019
26782 kPa | 1019
26798 kPa | 1019
26818 kPa | 1019
26834 kPa | 1019
26850 kPa | 1018.9
26870 kPa | 1019
26886 kPa | 1019
26902 kPa | 1019
26957 kPa | 1019.1
26974 kPa | 1019
26993 kPa | 1019.2
27010 kPa | 1019.1
27026 kPa | 1019
27042 kPa | 1019.2
27063 kPa | 1019.1
27080 kPa | 1019.2
27097 kPa | 1019.1
27117 kPa | 1019
27134 kPa | 1019.1
27155 kPa | 1019.2
27172 kPa | 1019.2
27188 kPa | 1019.2
27204 kPa | 1019.3
27222 kPa | 1019.2
27238 kPa | 1019.2
27253 kPa | 1019.2
27272 kPa | 1019.2
27288 kPa | 1019.3
27306 kPa | 1019.2
27322 kPa | 1019.4
27338 kPa | 1019.3
27354 kPa | 1019.3
27373 kPa | 1019.2
27388 kPa | 1019.2
27404 kPa | 1019.3
27423 kPa | 1019.3
27439 kPa | 1019.3
27458 kPa | 1019.4
27474 kPa | 1019.3
27489 kPa | 1019.4
27505 kPa | 1019.3
27524 kPa | 1019.4
27540 kPa | 1019.3
27560 kPa | 1019.3
27576 kPa | 1019.3
27592 kPa | 1019.4
27611 kPa | 1019.4
27627 kPa | 1019.3
27644 kPa | 1019.4
27660 kPa | 1019.5
27679 kPa | 1019.5
27696 kPa | 1019.4
27712 kPa | 1019.5
27732 kPa | 1019.4
27748 kPa | 1019.5
27764 kPa | 1019.6
27784 kPa | 1019.5
27800 kPa | 1019.4
27817 kPa | 1019.5
27837 kPa | 1019.5
27853 kPa | 1019.4
27869 kPa | 1019.5
27889 kPa | 1019.6
27906 kPa | 1019.6
27922 kPa | 1019.7
27942 kPa | 1019.6
27959 kPa | 1019.6
27976 kPa | 1019.5
27996 kPa | 1019.7
28012 kPa | 1019.5
28029 kPa | 1019.6
28046 kPa | 1019.7
28066 kPa | 1019.7
28083 kPa | 1019.7
28100 kPa | 1019.7
28120 kPa | 1019.6
28136 kPa | 1019.6
28153 kPa | 1019.7
28170 kPa | 1019.8
